# In article PMC12090182, “Repurposing of the RIPK1-Selective Benzo[1,4]oxazepin-4-one Scaffold for the Development of a Type III LIMK1/2 Inhibitor” (ACS Chemical Biology, 2025):
# Like-named read-outs stand apart in the source and are kept apart here.
# Tested on: U2OS cells
# Format: cell-based
# Conditions: U2OS
# Experimental: To assess the influence on cell health, a high-content screening in living cells called the multiplex high-content assay, as described previously by Tjaden et al., was performed.[38] In brief, HEK293T (ATCC CRL-1573) and U2OS (ATCCHTB-96) were cultured in DMEM plus L-glutamine (high glucose) supplemented by 10% FBS (Gibco) and penicillin/streptomycin (Gibco). MRC-9 fibroblasts ([…]) were cultured in EMEM plus L-glutamine supplemented by 10% FBS (Gibco) and penicillin/streptomycin (Gibco). Cells were seeded at a density of 1250 cells per well in a 384-well plate in a culture medium (cell culture microplate, PS, f-bottom, μClear, 781091, Greiner), with a volume of 50 μL per well. All outer wells were filled with 100 μL of PBS buffer (Gibco). […] The cell shape and fluorescence were measured before treatment and 12, 24, and 48 h after compound treatment using the CQ1 high-content confocal microscope (Yokogawa, Musashino, Japan). […] The compounds were tested at 1 and 10 μM, respectively. Acquired images of the cells were processed using Yokogawa CellPathfinder software (v3.04.02.02). […] Results were normalized to cells exposed to 0.1% DMSO. All compounds were tested in biological duplicates, and SEM (standard error of mean) was calculated of biological duplicates.
structure (smiles),measurement,setting,value
"CN1C(=O)[C@@H](N2CCc3c(nn(Cc4ccccc4)c3C(N)=O)C2=O)COc2cc(Cl)ccc21 [Compound 10, (S)-2-benzyl-6-(8-chloro-5-methyl-4-oxo-2,3,4,5-tetrahydrobenzo[b][1,4]oxazepin-3-yl)-7-oxo-4,5,6,7-tetrahydro-2H-pyrazolo[3,4-c]pyridine-3-carboxamide]",Cell count normalized to cells treated with DMSO control,"1 µM, 0 h, replicate 1",1.139
same,Cell count per well,"1 µM, 0 h, replicate 1",237
same,Population Fragmented Nuclei (%),"1 µM, 0 h, replicate 1",37.05%
same,Population Healthy Nuclei (%),"1 µM, 0 h, replicate 1",52.23%
same,Population Pyknosed Nuclei (%),"1 µM, 0 h, replicate 1",10.71%
same,Population apoptotic cell (%),"1 µM, 0 h, replicate 1",66.67%
same,Population cell that influence microtubule strucutre (%),"1 µM, 0 h, replicate 1",2.56%
same,Population with increased mitochondrial mass (%),"1 µM, 0 h, replicate 1",0.85%
same,Population with membrane disruption (%),"1 µM, 0 h, replicate 1",5.98%
same,Cell count normalized to cells treated with DMSO control,"1 µM, 0 h, replicate 2",0.8633
same,Cell count per well,"1 µM, 0 h, replicate 2",74
same,Population Fragmented Nuclei (%),"1 µM, 0 h, replicate 2",16.44%
same,Population Healthy Nuclei (%),"1 µM, 0 h, replicate 2",79.45%
same,Population Pyknosed Nuclei (%),"1 µM, 0 h, replicate 2",4.11%
same,Population apoptotic cell (%),"1 µM, 0 h, replicate 2",33.33%
same,Population cell that influence microtubule strucutre (%),"1 µM, 0 h, replicate 2",1.72%
same,Population with increased mitochondrial mass (%),"1 µM, 0 h, replicate 2",1.72%
same,Population with membrane disruption (%),"1 µM, 0 h, replicate 2",3.45%
same,Cell count normalized to cells treated with DMSO control,"1 µM, 12 h, replicate 1",1.055
same,Cell count per well,"1 µM, 12 h, replicate 1",279
same,Population Fragmented Nuclei (%),"1 µM, 12 h, replicate 1",23.90%
same,Population Healthy Nuclei (%),"1 µM, 12 h, replicate 1",65.44%
same,Population Pyknosed Nuclei (%),"1 µM, 12 h, replicate 1",10.66%
same,Population apoptotic cell (%),"1 µM, 12 h, replicate 1",75.86%
same,Population cell that influence microtubule strucutre (%),"1 µM, 12 h, replicate 1",2.81%
same,Population with increased mitochondrial mass (%),"1 µM, 12 h, replicate 1",1.69%
same,Population with membrane disruption (%),"1 µM, 12 h, replicate 1",7.87%
same,Cell count normalized to cells treated with DMSO control,"1 µM, 12 h, replicate 2",0.9215
same,Cell count per well,"1 µM, 12 h, replicate 2",109
same,Population Fragmented Nuclei (%),"1 µM, 12 h, replicate 2",11.11%
same,Population Healthy Nuclei (%),"1 µM, 12 h, replicate 2",84.26%
same,Population Pyknosed Nuclei (%),"1 µM, 12 h, replicate 2",4.63%
same,Population apoptotic cell (%),"1 µM, 12 h, replicate 2",80.00%
same,Population cell that influence microtubule strucutre (%),"1 µM, 12 h, replicate 2",2.20%
same,Population with increased mitochondrial mass (%),"1 µM, 12 h, replicate 2",2.20%
same,Population with membrane disruption (%),"1 µM, 12 h, replicate 2",3.30%
same,Cell count normalized to cells treated with DMSO control,"1 µM, 24 h, replicate 1",1.136
same,Cell count per well,"1 µM, 24 h, replicate 1",354
same,Population Fragmented Nuclei (%),"1 µM, 24 h, replicate 1",25.72%
same,Population Healthy Nuclei (%),"1 µM, 24 h, replicate 1",65.90%
same,Population Pyknosed Nuclei (%),"1 µM, 24 h, replicate 1",8.38%
same,Population apoptotic cell (%),"1 µM, 24 h, replicate 1",82.76%
same,Population cell that influence microtubule strucutre (%),"1 µM, 24 h, replicate 1",4.39%
same,Population with increased mitochondrial mass (%),"1 µM, 24 h, replicate 1",2.63%
same,Population with membrane disruption (%),"1 µM, 24 h, replicate 1",7.02%
same,Cell count normalized to cells treated with DMSO control,"1 µM, 24 h, replicate 2",0.9633
same,Cell count per well,"1 µM, 24 h, replicate 2",137
same,Population Fragmented Nuclei (%),"1 µM, 24 h, replicate 2",12.50%
same,Population Healthy Nuclei (%),"1 µM, 24 h, replicate 2",81.62%
same,Population Pyknosed Nuclei (%),"1 µM, 24 h, replicate 2",5.88%
same,Population apoptotic cell (%),"1 µM, 24 h, replicate 2",87.50%
same,Population cell that influence microtubule strucutre (%),"1 µM, 24 h, replicate 2",1.80%
same,Population with increased mitochondrial mass (%),"1 µM, 24 h, replicate 2",1.80%
same,Population with membrane disruption (%),"1 µM, 24 h, replicate 2",3.60%
same,Cell count normalized to cells treated with DMSO control,"1 µM, 48 h, replicate 1",1.128
same,Cell count per well,"1 µM, 48 h, replicate 1",502
same,Population Fragmented Nuclei (%),"1 µM, 48 h, replicate 1",21.34%
same,Population Healthy Nuclei (%),"1 µM, 48 h, replicate 1",69.72%
same,Population Pyknosed Nuclei (%),"1 µM, 48 h, replicate 1",8.94%
same,Population apoptotic cell (%),"1 µM, 48 h, replicate 1",86.36%
same,Population cell that influence microtubule strucutre (%),"1 µM, 48 h, replicate 1",2.04%
same,Population with increased mitochondrial mass (%),"1 µM, 48 h, replicate 1",3.21%
same,Population with membrane disruption (%),"1 µM, 48 h, replicate 1",6.41%
same,Cell count normalized to cells treated with DMSO control,"1 µM, 48 h, replicate 2",0.973
same,Cell count per well,"1 µM, 48 h, replicate 2",201
same,Population Fragmented Nuclei (%),"1 µM, 48 h, replicate 2",6.57%
same,Population Healthy Nuclei (%),"1 µM, 48 h, replicate 2",83.33%
same,Population Pyknosed Nuclei (%),"1 µM, 48 h, replicate 2",10.10%
same,Population apoptotic cell (%),"1 µM, 48 h, replicate 2",85.00%
same,Population cell that influence microtubule strucutre (%),"1 µM, 48 h, replicate 2",1.82%
same,Population with increased mitochondrial mass (%),"1 µM, 48 h, replicate 2",2.42%
same,Population with membrane disruption (%),"1 µM, 48 h, replicate 2",4.85%
same,cytotoxicity,1 μM,no cytotoxicity
same,Cell count normalized to cells treated with DMSO control,"10 µM, 0 h, replicate 1",1.1102
same,Cell count per well,"10 µM, 0 h, replicate 1",231
same,Population Fragmented Nuclei (%),"10 µM, 0 h, replicate 1",38.84%
same,Population Healthy Nuclei (%),"10 µM, 0 h, replicate 1",51.34%
same,Population Pyknosed Nuclei (%),"10 µM, 0 h, replicate 1",9.82%
same,Population apoptotic cell (%),"10 µM, 0 h, replicate 1",95.45%
same,Population cell that influence microtubule strucutre (%),"10 µM, 0 h, replicate 1",3.48%
same,Population with increased mitochondrial mass (%),"10 µM, 0 h, replicate 1",3.48%
same,Population with membrane disruption (%),"10 µM, 0 h, replicate 1",6.09%
same,Cell count normalized to cells treated with DMSO control,"10 µM, 0 h, replicate 2",1.062
same,Cell count per well,"10 µM, 0 h, replicate 2",91
same,Population Fragmented Nuclei (%),"10 µM, 0 h, replicate 2",26.19%
same,Population Healthy Nuclei (%),"10 µM, 0 h, replicate 2",64.29%
same,Population Pyknosed Nuclei (%),"10 µM, 0 h, replicate 2",9.52%
same,Population apoptotic cell (%),"10 µM, 0 h, replicate 2",100.00%
same,Population cell that influence microtubule strucutre (%),"10 µM, 0 h, replicate 2",3.70%
same,Population with increased mitochondrial mass (%),"10 µM, 0 h, replicate 2",3.70%
same,Population with membrane disruption (%),"10 µM, 0 h, replicate 2",7.41%
same,Cell count normalized to cells treated with DMSO control,"10 µM, 12 h, replicate 1",1.017
same,Cell count per well,"10 µM, 12 h, replicate 1",269
same,Population Fragmented Nuclei (%),"10 µM, 12 h, replicate 1",26.62%
same,Population Healthy Nuclei (%),"10 µM, 12 h, replicate 1",63.50%
same,Population Pyknosed Nuclei (%),"10 µM, 12 h, replicate 1",9.89%
same,Population apoptotic cell (%),"10 µM, 12 h, replicate 1",73.08%
same,Population cell that influence microtubule strucutre (%),"10 µM, 12 h, replicate 1",4.19%
same,Population with increased mitochondrial mass (%),"10 µM, 12 h, replicate 1",6.59%
same,Population with membrane disruption (%),"10 µM, 12 h, replicate 1",8.38%
same,Cell count normalized to cells treated with DMSO control,"10 µM, 12 h, replicate 2",0.9722
same,Cell count per well,"10 µM, 12 h, replicate 2",115
same,Population Fragmented Nuclei (%),"10 µM, 12 h, replicate 2",22.52%
same,Population Healthy Nuclei (%),"10 µM, 12 h, replicate 2",63.96%
same,Population Pyknosed Nuclei (%),"10 µM, 12 h, replicate 2",13.51%
same,Population apoptotic cell (%),"10 µM, 12 h, replicate 2",100.00%
same,Population cell that influence microtubule strucutre (%),"10 µM, 12 h, replicate 2",7.04%
same,Population with increased mitochondrial mass (%),"10 µM, 12 h, replicate 2",9.86%
same,Population with membrane disruption (%),"10 µM, 12 h, replicate 2",7.04%
same,Cell count normalized to cells treated with DMSO control,"10 µM, 24 h, replicate 1",0.9881
same,Cell count per well,"10 µM, 24 h, replicate 1",308
same,Population Fragmented Nuclei (%),"10 µM, 24 h, replicate 1",23.59%
same,Population Healthy Nuclei (%),"10 µM, 24 h, replicate 1",66.78%
same,Population Pyknosed Nuclei (%),"10 µM, 24 h, replicate 1",9.63%
same,Population apoptotic cell (%),"10 µM, 24 h, replicate 1",96.55%
same,Population cell that influence microtubule strucutre (%),"10 µM, 24 h, replicate 1",6.97%
same,Population with increased mitochondrial mass (%),"10 µM, 24 h, replicate 1",4.98%
same,Population with membrane disruption (%),"10 µM, 24 h, replicate 1",5.97%
same,Cell count normalized to cells treated with DMSO control,"10 µM, 24 h, replicate 2",0.886
same,Cell count per well,"10 µM, 24 h, replicate 2",126
same,Population Fragmented Nuclei (%),"10 µM, 24 h, replicate 2",18.18%
same,Population Healthy Nuclei (%),"10 µM, 24 h, replicate 2",71.90%
same,Population Pyknosed Nuclei (%),"10 µM, 24 h, replicate 2",9.92%
same,Population apoptotic cell (%),"10 µM, 24 h, replicate 2",100.00%
same,Population cell that influence microtubule strucutre (%),"10 µM, 24 h, replicate 2",6.90%
same,Population with increased mitochondrial mass (%),"10 µM, 24 h, replicate 2",6.90%
same,Population with membrane disruption (%),"10 µM, 24 h, replicate 2",10.34%
same,Cell count normalized to cells treated with DMSO control,"10 µM, 48 h, replicate 1",0.9437
same,Cell count per well,"10 µM, 48 h, replicate 1",420
same,Population Fragmented Nuclei (%),"10 µM, 48 h, replicate 1",19.22%
same,Population Healthy Nuclei (%),"10 µM, 48 h, replicate 1",67.40%
same,Population Pyknosed Nuclei (%),"10 µM, 48 h, replicate 1",13.38%
same,Population apoptotic cell (%),"10 µM, 48 h, replicate 1",90.91%
same,Population cell that influence microtubule strucutre (%),"10 µM, 48 h, replicate 1",3.61%
same,Population with increased mitochondrial mass (%),"10 µM, 48 h, replicate 1",3.97%
same,Population with membrane disruption (%),"10 µM, 48 h, replicate 1",5.78%
same,Cell count normalized to cells treated with DMSO control,"10 µM, 48 h, replicate 2",0.7019
same,Cell count per well,"10 µM, 48 h, replicate 2",145
same,Population Fragmented Nuclei (%),"10 µM, 48 h, replicate 2",21.28%
same,Population Healthy Nuclei (%),"10 µM, 48 h, replicate 2",65.96%
same,Population Pyknosed Nuclei (%),"10 µM, 48 h, replicate 2",12.77%
same,Population apoptotic cell (%),"10 µM, 48 h, replicate 2",83.33%
same,Population cell that influence microtubule strucutre (%),"10 µM, 48 h, replicate 2",7.53%
same,Population with increased mitochondrial mass (%),"10 µM, 48 h, replicate 2",7.53%
same,Population with membrane disruption (%),"10 µM, 48 h, replicate 2",15.05%
same,"impact on tubulin, mitochondrial mass, and cellular permeability in healthy cells",1 μM (Figure 6),comparable to that of the 0.1% DMSO control
